Reference: patent publication US20230033285A1, “Protease Inhibitors for Treatment of Coronavirus Infections” (The Scripps Research Institute, priority 2021, published 2023)

What follows are compounds tested on SARS-CoV-2 (assay: microbe, parasite or virus in culture). Details: Severe acute respiratory syndrome coronavirus 2, HeLa-ACE2, 24 h, read-out: EC50, μM (Hela).
Format: cell-based

SMILES | EC50
CC1(C)[C@@H]2[C@@H](C(=O)N[C@H](C#N)C[C@@H]3CCCNC3=O)N(C(=O)[C@@H](NC(=O)C(F)(F)F)C3CCOCC3)C[C@@H]21 [Compound 68, (1R,2S,5S)-N-((S)-1-cyano-2-((S)-2-oxopiperidin-3-yl)ethyl)-6,6-dimethyl-3-((S)-2-(tetrahydro-2H-pyran-4-yl)-2-(2,2,2-trifluoroacetamido)acetyl)-3-azabicyclo[3.1.0]hexane-2-carboxamide] | > 1 µM

Same assay, conditions: Severe acute respiratory syndrome coronavirus 2; HeLa-ACE2 cells infected with SARS-CoV-2, 24 h, immunofluorescence of infected cells; read-out: EC50, μM (Hela)

SMILES | EC50
CC(C)(C)C[C@H](NC(=O)C(=O)NC12CC(F)(C1)C2)C(=O)N[C@@H](C[C@@H]1CCCNC1=O)C(=O)CO [Compound 94, N^1-(3-fluorobicyclo[1.1.1]pentan-1-yl)-N^2-((S)-1-(((S)-4-hydroxy-3-oxo-1-((S)-2-oxopiperidin-3-yl)butan-2-yl)amino)-4,4-dimethyl-1-oxopentan-2-yl)oxalamide] | 0.05 to 0.2 µM
Cc1ccccc1NC(=O)C(=O)N[C@@H](CC(C)C)C(=O)N[C@@H](C[C@@H]1CCCNC1=O)C(=O)CO [Compound 27, N^1-((S)-1-(((S)-4-hydroxy-3-oxo-1-((S)-2-oxopiperidin-3-yl)butan-2-yl)amino)-4-methyl-1-oxopentan-2-yl)-N^2-(o-tolyl)oxalamide] | 0.05 to 0.2 µM
CC(C)C[C@H](NC(=O)C(=O)Nc1ccccc1)C(=O)N[C@@H](C[C@@H]1CCNC1=O)C(=O)CO [Compound 2, N^1-((S)-1-(((S)-4-hydroxy-3-oxo-1-((S)-2-oxopyrrolidin-3-yl)butan-2-yl)amino)-4-methyl-1-oxopentan-2-yl)-N^2-phenyloxalamide] | > 1 µM
CCCCCCC(=O)OCC(=O)[C@H](C[C@@H]1CCNC1=O)NC(=O)[C@H](CC1CCCCC1)NC(=O)C(=O)NC1CCCCC1 [Compound 19, (S)-3-((S)-3-cyclohexyl-2-(2-(cyclohexylamino)-2-oxoacetamido)propanamido)-2-oxo-4-((S)-2-oxopyrrolidin-3-yl)butyl heptanoate] | 0.2 to 0.5 µM
CC(C)C[C@H](NC(=O)C(=O)NC(C)(C)C)C(=O)N[C@@H](C[C@@H]1CCCNC1=O)C(=O)CO [Compound 115, N^1-(tert-butyl)-N^2-((S)-1-(((S)-4-hydroxy-3-oxo-1-((S)-2-oxopiperidin-3-yl)butan-2-yl)amino)-4-methyl-1-oxopentan-2-yl)oxalamide] | > 1 µM
CCCCCCCCCCCCCCC(=O)OCC(=O)[C@H](C[C@@H]1CCNC1=O)NC(=O)[C@H](CC(C)C)NC(=O)C(=O)Nc1ccccc1F [Compound 4, (S)-3-((S)-2-(2-((2-fluorophenyl)amino)-2-oxoacetamido)-4-methylpentanamido)-2-oxo-4-((S)-2-oxopyrrolidin-3-yl)butyl pentadecanoate] | 0.2 to 0.5 µM
COc1ccccc1NC(=O)C(=O)N[C@@H](CC(C)C)C(=O)N[C@@H](C[C@@H]1CCNC1=O)C(=O)CO [Compound 7] | > 1 µM
CC(C)CCC(=O)N[C@@H](CC(C)(C)C)C(=O)N[C@H](C#N)C[C@@H]1CCCNC1=O [Compound 136, (S)-N-((S)-1-cyano-2-((S)-2-oxopiperidin-3-yl)ethyl)-4,4-dimethyl-2-(4-methylpentanamido)pentanamide] | > 1 µM
CC(C)C[C@H](NC(=O)C(=O)Nc1ccccc1F)C(=O)N[C@H](C=O)C[C@@H]1CCNC1=O [Compound 39, N^1-(2-fluorophenyl)-N^2-((S)-4-methyl-1-oxo-1-(((S)-1-oxo-3-((S)-2-oxopyrrolidin-3-yl)propan-2-yl)amino)pentan-2-yl)oxalamide] | 0.05 to 0.2 µM
COc1cccc(C)c1NC(=O)C(=O)N[C@@H](CC(C)C)C(=O)N[C@@H](C[C@@H]1CCNC1=O)C(=O)CO [Compound 16, N^1-((S)-1-(((S)-4-hydroxy-3-oxo-1-((S)-2-oxopyrrolidin-3-yl)butan-2-yl)amino)-4-methyl-1-oxopentan-2-yl)-N^2-(2-methoxy-6-methylphenyl)oxalamide] | 0.2 to 0.5 µM
CC(C)(C)C[C@H](NC(=O)C(=O)NC(C)(C)C)C(=O)N[C@@H](C[C@@H]1CCCNC1=O)C(=O)CO [Compound 89, N^1-(tert-butyl)-N^2-((S)-1-(((S)-4-hydroxy-3-oxo-1-((S)-2-oxopiperidin-3-yl)butan-2-yl)amino)-4,4-dimethyl-1-oxopentan-2-yl)oxalamide] | 0.05 to 0.2 µM
CC(C)(C)C[C@H](NC(=O)C(=O)Nc1ccccc1C(F)(F)F)C(=O)N[C@H](C[C@@H]1CCCNC1=O)C(=O)CO [Compound 133, N^1-((S)-1-(((R)-4-hydroxy-3-oxo-1-((S)-2-oxopiperidin-3-yl)butan-2-yl)amino)-4,4-dimethyl-1-oxopentan-2-yl)-N^2-(2-(trifluoromethyl)phenyl)oxalamide] | > 1 µM
CC(C)C[C@H](NC(=O)OCc1cccc(Cl)c1)C(=O)N[C@@H](C[C@@H]1CCNC1=O)C(=O)CO [Compound 122, 3-chlorobenzyl ((S)-1-(((S)-4-hydroxy-3-oxo-1-((S)-2-oxopyrrolidin-3-yl)butan-2-yl)amino)-4-methyl-1-oxopentan-2-yl)carbamate] | > 1 µM
CC1(C)[C@@H]2[C@@H](C(=O)N[C@H](C#N)C[C@@H]3CCNC3=O)N(C(=O)C(=O)NC3(C(F)(F)F)CC3)C[C@@H]21 [Compound 65, (1R,2S,5S)-N-((S)-1-cyano-2-((S)-2-oxopyrrolidin-3-yl)ethyl)-6,6-dimethyl-3-(2-oxo-2-((1-(trifluoromethyl)cyclopropyl)amino)acetyl)-3-azabicyclo[3.1.0]hexane-2-carboxamide] | > 1 µM
O=C[C@H](C[C@@H]1CCNC1=O)NC(=O)[C@H](CC1CC1)NC(=O)c1cc(-c2ccccc2F)on1 [Compound 125, N-((S)-3-cyclopropyl-1-oxo-1-(((S)-1-oxo-3-((S)-2-oxopyrrolidin-3-yl)propan-2-yl)amino)propan-2-yl)-5-(2-fluorophenyl)isoxazole-3-carboxamide] | 0.05 to 0.2 µM
CC(C)(C)C[C@H](NC(=O)C(=O)Nc1cccc(OC(F)(F)F)c1)C(=O)N[C@@H](CC1CCCNC1=O)C(=O)CO (stereo partly drawn) [Compound 95] | < 0.05 µM
Cc1cccc(C)c1NC(=O)C(=O)N[C@@H](CC(C)C)C(=O)N[C@@H](C[C@@H]1CCNC1=O)C(=O)COC(=O)C(=O)c1ccccc1 [Compound 11, (S)-3-((S)-2-(2-((2,6-dimethylphenyl)amino)-2-oxoacetamido)-4-methylpentanamido)-2-oxo-4-((S)-2-oxopyrrolidin-3-yl)butyl 2-oxo-2-phenylacetate] | 0.05 to 0.2 µM
CCCCCCC(=O)OCC(=O)[C@H](C[C@@H]1CCNC1=O)NC(=O)[C@H](CC(C)C)NC(=O)c1cc2ccccc2[nH]1 [Compound 118, (S)-3-((S)-2-(1H-indole-2-carboxamido)-4-methylpentanamido)-2-oxo-4-((S)-2-oxopyrrolidin-3-yl)butyl heptanoate] | 0.05 to 0.2 µM
CC(C)C[C@H](NC(=O)C(=O)Nc1ccccc1F)C(=O)N[C@H](C#N)C[C@@H]1CCNC1=O [Compound 58] | 0.5 to 1 µM
CC(C)(C)C[C@H](NC(=O)C(=O)Nc1ccccc1F)C(=O)N[C@@H](C[C@@H]1CCCNC1=O)C(=O)CO [Compound 87, N^1-(2-fluorophenyl)-N^2-((S)-1-(((S)-4-hydroxy-3-oxo-1-((S)-2-oxopiperidin-3-yl)butan-2-yl)amino)-4,4-dimethyl-1-oxopentan-2-yl)oxalamide] | < 0.05 µM
